Patent publication US20120328719A1, “EXTERNAL PREPARATION FOR SKIN” (Shiseido Company, Ltd., priority 2010, published 2012)

Key:
[1] = Measurement of moisture transpiration rate constants (filter paper weight loss); format: physicochemical; settings: 10 μl on filter paper, slope 3 to 8 min, FIG. 3
Protocol: Heparan sulfate (n=5), chondroitin sulfate A (n=5), chondroitin sulfate B (n=5), keratan sulfate (n=5) and hyaluronic acid (n=5) were dissolved in MilliQ to prepare 0.2% aqueous solutions of each, and 5.0% glycerin (n=5) and MilliQ were prepared for use as a comparative sample (n refers to the respective number of samples). Filter paper cut to a size of 2 cm×2 cm was placed on a balance, and the filter paper was impregnated with 10 μl of each solution followed by measuring the weight of the filter paper for 8 minutes at 1 minute intervals. The weight (mg) of the filter paper from 3 to 8 minutes after the start of measurement was plotted on the vertical axis, elapsed time (min) was plotted on the horizontal axis, and the slope (mg/min) of the resulting line was calculated as the moisture transpiration rate constant (FIG. 3).

[2] = tested on: skin model (EFT-400, MatTek Corp.); assay: Immunostaining of skin models; format: cell-based; settings: skin model sections, vs control group; for expression level of heparan sulfate (immunostaining): days 4 and 8 of culturing, FIG. 4E-4H; for expression level of loricrin (immunostaining): FIG. 5A-5D; for expression level of filaggrin (immunostaining): FIG. 5E-5H
Protocol: A skin model (EFT-400, MatTek Corp.) was cultured in a special-purpose medium (EFT-400-ASY, MatTek Corp.). Dimethylsulfoxide (DMSO) and ethanol were added to the special-purpose medium to a final concentration of 0.1% for use as a control group, 50 mM 1-[4-(1H-benzoimidazol-2-yl)-phenyl]-3-[4-(1H-benzoimidazol-2-yl)-phenyl]urea (solvent: DMSO) were added to the special-purpose medium to a final concentration of 50 μM for use as a heparanase inhibitor group, 10 mM N-hydroxy-2-[[(4-methoxyphenyl)sulfonyl](3-picolyl)amino]-3-methylbutaneamide hydrochloride (CGS27023A, solvent: ethanol) were added to the special-purpose medium to a final concentration of 10 μM for use as an MMP inhibitor group, and 50 mM 1-[4-(1H-benzoimidazol-2-yl)-phenyl]-3-[4-(1H-benzoimidazol-2-yl)-phenyl]urea (solvent: DMSO) and 10 mM CGS27023A (solvent: ethanol) were added to the special-purpose medium to final concentrations of 50 μM and 10 μM, respectively, for use as a combination heparanase inhibitor+metalloproteinase (MMP) inhibitor group. The medium was replaced daily at 2 mL/well, and the skin model was recovered and used for experimentation on days 4 and 8 of culturing. In addition, during replacement of the medium, all of the culture fluid was collected and stored at −80° C.° for use in the experiments described below.
The skin models following culturing were cut in half with a scalpel and placed in acetone at 4° C. followed by allowing to stand undisturbed for 48 hours at 4° C. The solution was replaced with acetone, methyl benzoate and xylene in that order followed by embedding in paraffin to prepare paraffin blocks in accordance with the AMeX method. Tissue sections having a thickness of 3 μm were prepared followed by immunostaining with perlecan (FIGS. 4A to 4D), heparan sulfate (FIGS. 4E to 4H), loricrin (FIGS. 5A to 5D), filaggrin (FIGS. 5E to 5H) and Ki67 (FIG. 6) on days 4 and 8 of culturing. […] In addition, in the groups containing heparanase inhibitor, the presence of proliferative cells positive for Ki67 was clearly determined to be maintained.

[3] = tested on: skin model (EFT-400, MatTek Corp.); assay: Measurement of hyaluronic acid levels in cultured skin model; format: cell-based; settings: heparanase inhibitor 50 μM, CGS27023A 10 μM, FIG. 1B
Protocol: A skin model (EFT-400, MatTek Corp.) was cultured in a special-purpose medium (EFT-400-ASY, MatTek Corp.). […]
Measurement of hyaluronic acid levels was carried out on the aforementioned cultured control group (n=5), MMP inhibitor group (n=5), heparanase inhibitor group (n=5) and combination MMP inhibitor+heparanase inhibitor group (n=5) (n refers to the number of each skin model used in testing). […] The culture supernatants stored at −80° C. were then thawed and hyaluronic acid levels in these solutions were then measured with a hyaluronic acid assay kit (Seikagaku Corp.).

Row | moisture transpiration rate constant ([1]; 0.2% aqueous solution) | moisture transpiration rate constant ([1]; 5.0% glycerin comparative sample) | Molecule | expression level of heparan sulfate (immunostaining) [2] | expression level of loricrin (immunostaining) [2] | expression level of filaggrin (immunostaining) [2] | hyaluronic acid levels in culture supernatant [3]
1 | remarkably low | – | hyaluronic acid | – | – | – | –
2 | – | – | COc1ccc(S(=O)(=O)N(Cc2cccnc2)C(C(=O)NO)C(C)C)cc1.Cl (stereo not drawn) [MMP inhibitor, N-hydroxy-2-[[(4-methoxyphenyl)sulfonyl](3-picolyl)amino]-3-methylbutaneamide hydrochloride] | increased | increased | increased | –
3 | – | roughly the same | OCC(O)CO [glycerin] | – | – | – | –
4 | – | – | O=C(Nc1ccc(-c2nc3ccccc3[nH]2)cc1)Nc1ccc(-c2nc3ccccc3[nH]2)cc1 [heparanase inhibitor, 1-[4-(1H-benzoimidazol-2-yl)-phenyl]-3-[4-(1H-benzoimidazol-2-yl)-phenyl]urea] | increased | increased | increased | significant decreases
